# Measured values published in US20250314668A1, “DNAZYMES FOR SENSING AND IMAGING TARGET MOLECULES” (BOARD OF REGENTS, THE UNIVERSITY OF TEXAS SYSTEM, priority 2024, published 2025).
# Like-named read-outs stand apart in the source and are kept apart here. {3IABkFQ} = Iowa Black FQ quencher
# Legend:
# SH-SY5Y cells = assay: Fluorescence imaging of Cu^+ and Cu^2+ in live SH-SY5Y cells (PDTC, BCS, Aβ40); assay type: cell-based, human
# cultured cell lines = assay: Iron redox changes in cultured cell lines with ferroptosis inducers and NCOA4 regulators; assay type: cell-based
# HepG2 or Hela cells = assay: Simultaneous imaging of labile Fe^2+ and Fe^3+ in living cells treated with Tf or DFO; assay type: cell-based; conditions: treated cells
# Experimental: For delivery of DNAzyme sensors using PEI (66, 67), the corresponding Fe(II)-H5-ErS, Fe(II)-H5-iErS, Fe(III)-B12-ErS, and Fe(III)-B12-iErS (final concentration of 10 μM) were mixed in the Fe^2+ buffer and Fe^3+ buffer separately. The mixtures were annealed at 95° C. for 5 min and stored at room temperature to allow full hybridization. PEI (25 kDa) was dissolved in water at 1 mg/ml. […] The normal cell medium was replaced with iron-deficient medium before the PEI-ErS or PEI-iErS was added to the cells grown in the plates.
# After incubating HepG2 cells with PEI-ErS or PEI-iErS complex for 4 hours, cells were washed with phosphate-buffered saline (PBS) twice to remove excess amounts of complexes in medium. Then, the cells were stained by Hoechst 33258 for 15 min. Images were obtained using a Zeiss LSM 880 confocal microscope at 63× oil objective lens with numerical aperture 1.40 and immersion medium Immersol 518 F (Zeiss) at the UIUC IGB Core Facilities. Florescence emission of Hoechst 33258 was measured over 450 to 500 nm with excitation at 401 nm. Fe(II)-H5 was excited by 488 nm and measured over 500 to 550 nm, and Fe(III)-B12 was excited at 633 nm and measured over 640 to 700 nm. A laser power of 67% and pinhole size of 1 […] (AU) were used for the cellular images. Acquired images were analyzed by ImageJ using JACoP (88, 89). No background subtraction, Z-stacks, Gaussian blur filter, or change thresholds were performed for visualizing the figures. For cell fluorescence quantification, the study quantified the average fluorescence signals intensity in five cells (for TurboFect transfected cells) or five LysoTracker-labeled regions in different cells (for PEI transfected cells), per picture and three pictures per group with Image J (88), for the statistical comparison between groups.
# Simultaneous imaging of labile Fe^2+ and Fe^3+ in living cells: HepG2 or Hela cells were cultured in glass-bottom dishes until about 70% confluence. The cells were pretreated with iron-deficient MEM containing either 100 μM DFO, 100 μM ferric ammonium citrate, […] holo-Tf, or 50 μM Tf for 4 hours, and then, the medium was replaced with an iron-deficient MEM containing PEI-ErS or PEI-iErS complexes or Opti-MEM containing 1 μl of TurboFect transfection reagent as described above for 4 hours. Before imaging, the cells were stained by LysoTracker Red and Hoechst 33258 for 15 min. After washing with PBS, the cells were incubated in iron-deficient MEM or regular DMEM, respectively, during the imaging.
# Data processing and statistical analysis: To have a direct comparison of the iron amount between groups, the background signals were normalized by subtracting the fluorescence signals in iErS groups from the ErS groups (F-F0). No Z-stacks or change thresholds were used for statistical analysis. Graphs were plotted with GraphPad (GraphPad Software Inc.) or Origin (OriginLabs Corporation) and correspond to a single experiment. Bars represent means±SEM. Two-tailed distribution and two-sample equal variance t test were used for analyzing significance. Dixon's Q tests were performed to identify and exclude outliners. *P<0.05, **P<0.01, and ***P <0.001. […] The presented data described the quantification from single representative replicates from those biological replicates.
# [1] = Copper sensor signal turn-on and background in solution (inactive controls, upgraded version); assay type: biochemical; conditions: for activity of inactive sequences to fluorophore labeled substrates: screening of Cu^2+ DNAzyme inactive sequences
# Experimental: FIGS. 14A-14B depict fluorescence resulting of upgraded Cu DNAzyme. The concentration of Cu^2+ is 8 μM, the concentration of ascorbate is 50 μM.
# Since the DNAzyme sensors are exposed to various nucleic acid enzymes in biological samples during imaging, it is common to have some extent of sensor degradation and dehybridization, which can increase the background signal. Although the study applied modifications to the end of DNA strands to minimize the exonuclease activities, the background could not be fully removed. Thus, it is critical to estimate the background signal levels for accurate background subtraction and more precise signal quantification.
# In this iE design, the catalytic core sequence are converted into complement sequence of the original active sequences.
# [2] = Point mutation gel cleavage assay of Fe^3+ B12 DNAzyme and substrate (heat map); assay type: biochemical; conditions: 100 μM FeCl3, pH 5.5, overnight; for activity of mutated substrate strand normalized to original Fe^3+ B12 Substrate: original DNAzyme strand
# Experimental: (§1) FIG. 5 depicts a heat map illustrating the impact of point mutations within the catalytic core of the Fe^3+ B12 DNAzyme, against the unaltered Fe^3+ B12 substrate strand for comparative analysis with 5 mM Bis Tris, 40 mM Sodium Acetate, 200 mM NaCl at pH 5.5 with 100 μM FeCl3. The reaction occurred overnight at room temperature and analyzed by polyacrylamide gel electrophoresis.
# as §1, with “FIG. 6” for “FIG. 5”, “B12 Substrate strand,” for “B12 DNAzyme,”, “B12 DNAzyme” for “B12 substrate”
# (§2) Point mutations were intentionally introduced into the Fe^3+ B12 DNAzyme catalytic core, and subsequently assessed in comparison to the unaltered Fe^3+ B12 substrate strand under controlled reaction conditions. These conditions included a solution comprising 5 mM Bis Tris, 40 mM Sodium Acetate, 200 mM NaCl at pH 5.5, with concentrations of 250 nM for both the mutated B12 DNAzyme Strand and the FAM-labeled Original B12 Substrate Strand, along with 100 μM FeCl3. The reaction proceeded overnight at ambient temperature, followed by analysis via electrophoresis on a 15% denaturing gel.
# as §2, with “Fe^3+ B12 Substrate Strand's catalytic core,” for “Fe^3+ B12 DNAzyme catalytic core,”, “Fe^3+ B12 DNAzyme strand under” for “Fe^3+ B12 substrate strand under”, “both the Original B12 DNAzyme” for “both the mutated B12 DNAzyme”, “the FAM-labeled mutated B12 Substrate” for “the FAM-labeled Original B12 Substrate”
compound,measurement,setting,value
"Cc1cc(-c2ccc(S(=O)(=O)O)cc2)c2ccc3c(-c4ccc(S(=O)(=O)O)cc4)cc(C)nc3c2n1 [BCS, bathocuproine disulphonate]",fluorescence intensity of copper DNAzyme,SH-SY5Y cells; 150 μM or 200 μM BCS overnight,significant decrease
[Cl-].[Cl-].[Co+2] [CoCl2],Fe^3+/Fe^2+ ratio (Fe redox) with elevation of NCOA4,cultured cell lines,increase
"CC(=O)N(O)CCCCCNC(=O)CCC(=O)N(O)CCCCCNC(=O)CCC(=O)N(O)CCCCCN [DFO, deferoxamine, reference compound]",decrease of the Fe^3+/Fe^2+ ratio,HepG2 or Hela cells,2.4 fold
COC(=O)CNC(=O)C(=O)OC [DMOG],Fe^3+/Fe^2+ ratio (Fe redox) with elevation of NCOA4,cultured cell lines; cells incubated with NCOA4 stimulator,increase
"S=C(S)N1CCCC1 [PDTC, pyrrolidine dithiocarba-mate]",fluorescence signal of both Cu^+ and Cu^2+ sensor,SH-SY5Y cells; 50 PM PDTC,significant increase
same,fluorescence signal of both Cu^+ and Cu^2+ sensor,"SH-SY5Y cells; addition of PDTC with Cu^2+, dose-dependent manner",increased
Amyloid-β (1-40) peptide [Aβ40],fluorescence signals of intracellular Cu^+ and Cu^2+ DNAzyme,"SH-SY5Y cells; pretreated 24 h with monomers, oligomers and fibrils",enhanced
Aβ40 oligomers: oligomeric aggregation state of Aβ40,fluorescence intensity of Cu^+ and Cu^2+ DNAzyme,"SH-SY5Y cells; 10 μM, 24 h",significantly increased
"Cu2 iE complement: inactive enzyme strand (TTTCGCCATCTTCTGGTCCTTATAGTGACT; DNA, backbone not given here; further chemistry not fully specified)",activity of inactive sequences to fluorophore labeled substrates,[1],minimum activity
"Cu2 iE polyT 3IBFQ: inactive enzyme strand (TTTCGCCATCTTCTTTTTTTTATAGTGACT; DNA, 3' {3IABkFQ}, backbone not given here)",background signal of inactive sequence,[1]; both fluorophore and quencher labels,minimum background signal
"Cu2 iE polyT: inactive enzyme strand (TTTCGCCATCTTCTTTTTTTTATAGTGACT; DNA, backbone not given here; further chemistry not fully specified)",activity of inactive sequences to fluorophore labeled substrates,[1],minimum activity
"Fe^3+ B12 DNAzyme C20T (GCGGCATGCGCGTTTGCGGTACCTAAACGCTCCTAATAGAG; DNA, backbone not given here)",activity of mutated DNAzyme strand normalized to original Fe^3+ B12 DNAzyme,[2]; FAM-labeled original substrate,heightened activity
"Fe^3+ B12 Substrate A14G (CTCTATTAGGGAGGCTCGCATGCCGC; listed as DNA, chemistry not fully specified)",activity of mutated substrate strand normalized to original Fe^3+ B12 Substrate,[2],heightened activity
"Fe^3+ B12 Substrate C15A (CTCTATTAGGGAGAATCGCATGCCGC; listed as DNA, chemistry not fully specified)",activity of mutated substrate strand normalized to original Fe^3+ B12 Substrate,[2],heightened activity
